In publication PMC9518264, “Design and synthesis of novel quinazolinone-based derivatives as EGFR inhibitors with antitumor activity” (Journal of Enzyme Inhibition and Medicinal Chemistry, 2022):

How the values were obtained:
SW-620 = assay: cells; format: cell-based; details: Homo sapiens, SW-620, read-out: growth inhibition % (GI%)
MCF7 = assay: cells; format: cell-based; details: Homo sapiens, MCF7, read-out: growth inhibition % (GI%)
PC-3 = assay: cells; format: cell-based; details: Homo sapiens, PC-3, read-out: growth inhibition % (GI%)
MDA-MB-435 = assay: cells; format: cell-based; details: Homo sapiens, MDA-MB-435, read-out: growth inhibition % (GI%)
KM12 = assay: cells; format: cell-based; details: Homo sapiens, KM12, read-out: growth inhibition % (GI%)
COLO-205 = assay: cells; format: cell-based; details: Homo sapiens, COLO 205, read-out: growth inhibition % (GI%)
MOLT-4 = assay: cells; format: cell-based; details: Homo sapiens, MOLT-4, read-out: growth inhibition % (GI%)
NCI/ADR-RES = assay: cells; format: cell-based; details: Homo sapiens, read-out: growth inhibition % (GI%)
MALME-3M = assay: cells; format: cell-based; details: Homo sapiens, Malme-3M, read-out: growth inhibition % (GI%)
HCT-116 = assay: cells; format: cell-based; details: Homo sapiens, HCT-116, read-out: growth inhibition % (GI%)
SF-539 = assay: cells; format: cell-based; details: Homo sapiens, SF-539, read-out: growth inhibition % (GI%)
A549/ATCC = assay: cells; format: cell-based; details: Homo sapiens, A549, read-out: growth inhibition % (GI%)
ACHN = assay: cells; format: cell-based; details: Homo sapiens, read-out: growth inhibition % (GI%)
SNB-19 = assay: cells; format: cell-based; details: Homo sapiens, SNB-19, read-out: growth inhibition % (GI%)
HOP-92 = assay: cells; format: cell-based; details: Homo sapiens, HOP-92, read-out: growth inhibition % (GI%)
NCI-H322M = assay: cells; format: cell-based; details: Homo sapiens, read-out: growth inhibition % (GI%)
MDA-MB-468 = assay: NCI 60 cell line antiproliferative screening (SRB), Breast cancer; details: Homo sapiens, MDA-MB-468, read-out: growth inhibition % (GI%)
OVCAR-8 = assay: cells; format: cell-based; details: Homo sapiens, OVCAR-8, read-out: growth inhibition % (GI%)
MDA-MB-231/ATCC = assay: NCI 60 cell line antiproliferative screening (SRB), Breast cancer; format: cell-based; details: Homo sapiens, MDA-MB-231, read-out: growth inhibition % (GI%)
DU-145 = assay: cells; format: cell-based; details: Homo sapiens, DU-145, read-out: growth inhibition % (GI%)
SN12C = assay: cells; format: cell-based; details: Homo sapiens, read-out: growth inhibition % (GI%)
786-0 = assay: cells; format: cell-based; details: Homo sapiens, 786-0, read-out: growth inhibition % (GI%)
UACC-62 = assay: cells; format: cell-based; details: Homo sapiens, UACC-62, read-out: growth inhibition % (GI%)
SR = assay: cells; format: cell-based; details: Homo sapiens, read-out: growth inhibition % (GI%)
IGROV1 = assay: cells; format: cell-based; details: Homo sapiens, IGROV-1, read-out: growth inhibition % (GI%)
EKVX = assay: cells; format: cell-based; details: Homo sapiens, read-out: growth inhibition % (GI%)
BT-549 = assay: cells; format: cell-based; details: Homo sapiens, BT-549, read-out: growth inhibition % (GI%)
SK-MEL-2 = assay: cells; format: cell-based; details: Homo sapiens, SK-MEL-2, read-out: growth inhibition % (GI%)
K-562 = assay: cells; format: cell-based; details: Homo sapiens, K562, read-out: growth inhibition % (GI%)
SF-295 = assay: cells; format: cell-based; details: Homo sapiens, SF-295, read-out: growth inhibition % (GI%)
[1] = tested on: panel of 60 tumour cell lines; assay: NCI 60 cell line antiproliferative screening (SRB), whole panel or subpanels (means, ranges, words); format: cell-based, human; details: 10 μM
HT29 = assay: cells; format: cell-based; details: Homo sapiens, HT-29, read-out: growth inhibition % (GI%)
SK-MEL-5 = assay: cells; format: cell-based; details: Homo sapiens, SK-MEL-5, read-out: growth inhibition % (GI%)
T-47D = assay: cells; format: cell-based; details: Homo sapiens, T47D, read-out: growth inhibition % (GI%)
A498 = assay: cells; format: cell-based; details: Homo sapiens, A498, read-out: growth inhibition % (GI%)
U251 = assay: cells; format: cell-based; details: Homo sapiens, U-251, read-out: growth inhibition % (GI%)
RPMI-8226 = assay: cells; format: cell-based; details: Homo sapiens, RPMI-8226, read-out: growth inhibition % (GI%)
SK-OV-3 = assay: cells; format: cell-based; details: Homo sapiens, SK-OV-3, read-out: growth inhibition % (GI%)
LOX IMIV = assay: cells; format: cell-based; details: Homo sapiens, 60 cell, read-out: growth inhibition % (GI%)
SF-268 = assay: cells; format: cell-based; details: Homo sapiens, SF-268, read-out: growth inhibition % (GI%)
SK-MEL-28 = assay: cells; format: cell-based; details: Homo sapiens, SK-MEL-28, read-out: growth inhibition % (GI%)
UO-31 = assay: cells; format: cell-based; details: Homo sapiens, UO-31, read-out: growth inhibition % (GI%)
CCRF-CEM = assay: cells; format: cell-based; details: Homo sapiens, read-out: growth inhibition % (GI%)
HOP-62 = assay: cells; format: cell-based; details: Homo sapiens, HOP-62, read-out: growth inhibition % (GI%)
NCI-H460 = assay: cells; format: cell-based; details: Homo sapiens, NCI-H460, read-out: growth inhibition % (GI%)
HS 578T = assay: cells; format: cell-based; details: Homo sapiens, Hs-578T, read-out: growth inhibition % (GI%)
OVCAR-5 = assay: cells; format: cell-based; details: Homo sapiens, OVCAR-5, read-out: growth inhibition % (GI%)

Question: Which results are given for O=C(CSc1nc2ccccc2c(=O)n1-c1ccccc1)NN=Cc1ccc(Oc2ccc(Cl)cc2)cc1 [6a, N'-(4–(4-chlorophenoxy)benzylidene)-2-((4-oxo-3-phenyl-3,4-dihydroquinazolin-2-yl)thio)acetohydrazide]?
Answer: inhibition at 10 µM (SW-620): 56.9%; inhibition at 10 µM (MCF7): 35.5%; inhibition at 10 µM (PC-3): 41.3%; inhibition at 10 µM (MDA-MB-435): 15.4%; inhibition at 10 µM (KM12): 16.3%; inhibition at 10 µM (COLO-205): 50.8%; inhibition at 10 µM (MOLT-4): 41.3%; inhibition at 10 µM (NCI/ADR-RES): 47.3%; inhibition at 10 µM (MALME-3M): 48.7%; inhibition at 10 µM (HCT-116): 94.4%; inhibition at 10 µM (SF-539): 31.5%; inhibition at 10 µM (A549/ATCC): 58.3%; inhibition at 10 µM (ACHN): 25.5%; inhibition at 10 µM (SNB-19): 66.8%; inhibition at 10 µM (HOP-92): 33.3%; inhibition at 10 µM (NCI-H322M): 15.5%; inhibition at 10 µM (MDA-MB-468): 28.4%; inhibition at 10 µM (OVCAR-8): 40.8%; inhibition at 10 µM (MDA-MB-231/ATCC): 50.8%; inhibition at 10 µM (DU-145): 61.6%; inhibition at 10 µM (SN12C): 73.1%; inhibition at 10 µM (786-0): 46.8%; inhibition at 10 µM (UACC-62): 33.4%; inhibition at 10 µM (SR): 29.7%; inhibition at 10 µM (IGROV1): 50.9%; inhibition at 10 µM (EKVX): 41%; inhibition at 10 µM (BT-549): 30.1%; inhibition at 10 µM (SK-MEL-2): 13.1%; inhibition at 10 µM (K-562): 38.8%; inhibition at 10 µM (SF-295): 16.2%; GI% range over a subset of cell lines ([1]; subset of cell lines whose number is stated in the sentence): 67.86% to 30.09; inhibition at 10 µM ([1]; Homo sapiens, 60 cell, mean over the cell line panel, read-out: Mean growth inhibition % (mean GI%)): 37.3%; inhibition at 10 µM (HT29): 40.9%; inhibition at 10 µM (SK-MEL-5): 28.8%; inhibition at 10 µM (T-47D): 17.5%; inhibition at 10 µM (A498): 34.3%; inhibition at 10 µM (U251): 84.8%; inhibition at 10 µM (RPMI-8226): 26.8%; inhibition at 10 µM (SK-OV-3): 16.8%; inhibition at 10 µM (LOX IMIV): 86%; inhibition at 10 µM (SF-268): < 15%; inhibition at 10 µM (SK-MEL-28): 37.6%; inhibition at 10 µM (UO-31): 18.8%; inhibition at 10 µM (CCRF-CEM): 49.6%; inhibition at 10 µM (HOP-62): 40.9%; inhibition at 10 µM (NCI-H460): 67.9%; inhibition at 10 µM (HS 578T): 41.1%; inhibition at 10 µM (OVCAR-5): 18.6%
